According to patent US20260042764A1, “COMPOSITIONS AND METHODS FOR INHIBITION OF KRAS” (TheRas, Inc., priority 2022, published 2026):

What was measured:
[1] = biological target: T1, Avi-KRAS WT (1-169) GppNHp/RAF1 RBD-3xFLAG (52-151) (Homo sapiens, UniProt P01116); assay: Raf1-KRAS WT-GppNHP disruption HTRF assay (Biological Example 1); type: binding
T1 construct: Avi-KRAS WT (1-169)
Outline: (§1)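 Using HTRF, the loss of KRAS–effector RAF1 complex was quantified in 50 mM Tris pH 7.5 buffer with 100 mM NaCl and 0.1% BSA. The protein step and reagent step ran 1 h each at room temperature. Activity normalized with DMSO taken as 100%.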

[2] = tested on: GP2d cells (KRAS G12D); assay: Cell-based pERK HTRF assay in GP2d cell (Biological Example 2); details: GP2d, GP2d (KRAS G12D) cells, pERK HTRF
Outline: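 Cells grown in DMEM with 10% FBS were exposed to compound for 60 min at 0.25% DMSO, using a 9-point half-log series starting at 1 μM or 100 nM. Lysates were then mixed with d2 and Eu cryptate antibodies for 4–24 h at room temperature, and pERK was read by HTRF.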

[3] = biological target: T2, Avi-KRAS G12R (1-169) GppNHp/RAF1 RBD-3xFLAG (52-151) (Homo sapiens, UniProt P01116, G12R); assay: Raf1-KRAS G12R-GppNHP disruption HTRF assay (Biological Example 1); type: binding
T2 construct: Avi-KRAS G12R (1-169)
Outline: as §1

[4] = biological target: T3, Avi-KRAS G12V (1-169) GppNHp/RAF1 RBD-3xFLAG (52-151) (Homo sapiens, UniProt P01116, G12V); assay: Raf1-KRAS G12V-GppNHP disruption HTRF assay (Biological Example 1); type: binding
T3 construct: Avi-KRAS G12V (1-169)
Outline: as §1

[5] = biological target: T4, Avi-KRAS G12D (1-169) GppNHp/RAF1 RBD-3xFLAG (52-151) (Homo sapiens, UniProt P01116, G12D); assay: Raf1-KRAS G12D-GppNHP disruption HTRF assay (Biological Example 1); type: binding
T4 construct: Avi-KRAS G12D (1-169)
Outline: as §1

[6] = tested on: SW620 cells (KRAS G12V); assay: Cell-based pERK HTRF assay in SW620 cell (Biological Example 4); details: Homo sapiens, SW-620, SW620 (KRAS G12V) cells, pERK HTRF
Protocol: A pERK assay (Perkin Elmer) was used to determine the effectiveness of compounds in disrupting KRAS G12V protein/effector signaling in cells.
On Day 1, cells (SW620) were seeded into 96-well plates at 3×10^4 cells/well in 80 μL complete growth media (RPMI, 10% FBS).
On Day 2, cells were treated with compounds at 0.25% DMSO. The source plate was created with compounds diluted in media at 5-fold the final assay concentration. The compounds were run in a 9-point concentration curve starting at 1 μM, with a half-log dilution between concentrations. Twenty μL was transferred onto the cell plates (final volume in wells was 100 μL). Plates were harvested after 4 h incubation by aspirating media and adding kit-supplied 1x supplemented lysis buffer to all wells (50 μL per well). Plates were then placed on a plate shaker and incubated at 850 rpm for an additional 30 min.
Antibody mixture solution was prepared by diluting aliquoted d2 and Eu Cryptate antibodies 1:20 in kit supplied detection buffer and mixing the diluted antibodies solutions (1:1 v:v).
Samples were homogenized by pipetting up and down and then transferred (16 μL of cell lysates) from the 96-well cell culture plate to two wells of the HTRF 384-well detection plate containing the antibody solution. Plates were centrifuged (524 g for Imin) and allowed to incubate between 4 and 24 h at room temperature. […] Plates were centrifuged again (524 g for 1 min), then analyzed on the En Vision plate reader using the following settings: Excitation 320 nm, Bandwidth 75 nm; Emission 615 nm, Bandwidth 85 nm; Gain 100%; Flashes 100; Lag 60 μs.

[7] = KRAS WT, GppNHp-loaded, Table 11
[8] = KRAS G12R, GppNHp-loaded, Table 11
[9] = KRAS G12V, GppNHp-loaded, Table 11
[10] = KRAS G12D, GppNHp-loaded, Table 11

T2 sequence (P01116 1-169 isoform P01116-2 G12R): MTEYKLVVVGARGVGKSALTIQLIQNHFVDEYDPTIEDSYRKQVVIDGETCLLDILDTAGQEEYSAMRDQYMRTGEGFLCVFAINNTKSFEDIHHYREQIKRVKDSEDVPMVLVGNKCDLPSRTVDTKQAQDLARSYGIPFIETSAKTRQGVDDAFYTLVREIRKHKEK
T4 sequence (P01116 1-169 isoform P01116-2 G12D): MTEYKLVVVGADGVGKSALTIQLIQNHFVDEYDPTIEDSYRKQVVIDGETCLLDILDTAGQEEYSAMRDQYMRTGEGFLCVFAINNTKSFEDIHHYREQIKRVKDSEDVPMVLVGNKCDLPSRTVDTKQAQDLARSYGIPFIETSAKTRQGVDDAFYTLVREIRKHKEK
T3 sequence (P01116 1-169 isoform P01116-2 G12V): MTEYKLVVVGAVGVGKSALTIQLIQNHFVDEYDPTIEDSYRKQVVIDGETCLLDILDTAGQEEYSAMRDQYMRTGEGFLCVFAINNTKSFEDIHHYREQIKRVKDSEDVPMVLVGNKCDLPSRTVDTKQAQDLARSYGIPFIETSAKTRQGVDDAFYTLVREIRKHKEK
T1 sequence (P01116 1-169 isoform P01116-2): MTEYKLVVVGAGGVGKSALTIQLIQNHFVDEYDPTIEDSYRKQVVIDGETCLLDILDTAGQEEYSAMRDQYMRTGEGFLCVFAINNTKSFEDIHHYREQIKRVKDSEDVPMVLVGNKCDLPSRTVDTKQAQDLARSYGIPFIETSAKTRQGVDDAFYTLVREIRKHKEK

| SMILES | IC50 [2] [nM] | IC50 [6] [nM] | IC50 [1, 7] [nM] | IC50 [3, 8] [nM] | IC50 [4, 9] [nM] | IC50 [5, 10] [nM] | further results |
| --- | --- | --- | --- | --- | --- | --- | --- |
| CCN(c1nc(OC[C@@]23CCCN2C[C@H](F)C3)nc2c(F)c(-c3ccc(F)c4sc(N)c(C#N)c34)c(C(F)(F)F)cc12)[C@H]1CCN(C(=O)[C@H](C)OC)[C@@H]1C (atropisomer, axis not shown) [Compound 781] |  |  |  |  |  |  | IC50 ([1]; KRAS WT, GppNHp-loaded, class symbols): < 100 nM; IC50 ([2]; class symbols): < 100 nM; IC50 ([3]; KRAS G12R, GppNHp-loaded, class symbols): < 100 nM; IC50 ([4]; KRAS G12V, GppNHp-loaded, class symbols): 100 to 1000 nM; IC50 ([5]; KRAS G12D, GppNHp-loaded, class symbols): < 100 nM; IC50 ([6]; class symbols): < 100 nM |
| CN(c1nc(OC[C@@]23CCCN2C[C@H](F)C3)nc2c(F)c(-c3ccc(F)c4sc(N)c(C#N)c34)c(C(F)(F)F)cc12)C1CC(F)C1 (stereo partly shown) [Compound 161] |  | < 100 | 100 to 1000 | 100 to 1000 | 100 to 1000 | 100 to 1000 |  |
| CCN(c1nc(OC[C@@]23CCCN2C[C@H](F)C3)nc2c(F)c(-c3ccc(F)c4sc(N)c(C#N)c34)c(C(F)(F)F)cc12)[C@@H]1CCN(C(C)=O)[C@@H]1C [Compound 407] |  | < 100 |  |  |  |  | IC50 ([1]; KRAS WT-GppNHp/RAF1 RBD HTRF): 100 to 1000 nM; IC50 ([3]; KRAS G12R-GppNHp/RAF1 RBD HTRF): 100 to 1000 nM; IC50 ([4]; KRAS G12V-GppNHp/RAF1 RBD HTRF): 100 to 1000 nM; IC50 ([5]; KRAS G12D-GppNHp/RAF1 RBD HTRF): 100 to 1000 nM |
| CN(c1nc(OC[C@@]23CCCN2C[C@H](F)C3)nc2c(C#N)c(-c3ccc(F)c4sc(N)c(C#N)c34)c(Cl)cc12)[C@H]1C[C@@H](O)C1 [Compound 30, 7-(2-amino-3-cyano-7-fluorobenzo[b]thiophen-4-yl)-6-chloro-2-(((2R,7aS)-2-fluorotetrahydro-1H-pyrrolizin-7a(5H)-yl)methoxy)-4-(((1s,3R)-3-hydroxycyclobutyl)(methyl)amino)quinazoline-8-carbonitrile] | 100 to 1000 |  | 100 to 1000 | 100 to 1000 | 100 to 1000 | 100 to 1000 |  |
| N#Cc1c(N)sc2c(F)ccc(-c3c(C(F)(F)F)cc4c(N5CC6CCC5CO6)nc(OC[C@@]56CCCN5C[C@H](F)C6)nc4c3F)c12 (stereo partly shown) [Compound 146] | < 100 |  | 100 to 1000 | 100 to 1000 | 100 to 1000 | 100 to 1000 |  |
| CN(c1nc(OC[C@@]23CCCN2C[C@H](F)C3)nc2cc(-c3ccc(F)c4sc(N)c(C#N)c34)c(C(F)(F)F)cc12)[C@H]1C[C@@H](O)C1 [Compound 33] | 100 to 1000 |  | 100 to 1000 | 100 to 1000 | 100 to 1000 | 100 to 1000 |  |

The next lines start with results.

| IC50 [2] [nM] | IC50 [6] [nM] | IC50 [1, 7] [nM] | IC50 [3, 8] [nM] | IC50 [4, 9] [nM] | IC50 [5, 10] [nM] | SMILES | further results |
| --- | --- | --- | --- | --- | --- | --- | --- |
| < 100 | < 100 |  |  |  |  | C[C@@H]1[C@H](N(C)c2nc(OC[C@@]34CCCN3C[C@H](F)C4)nc3c(F)c(-c4ccc(F)c5sc(N)c(C#N)c45)c(C(F)(F)F)cc23)CCN1C(=O)C(F)F [Compound 458] | IC50 ([1]; KRAS WT-GppNHp/RAF1 RBD HTRF): 100 to 1000 nM; IC50 ([3]; KRAS G12R-GppNHp/RAF1 RBD HTRF): 100 to 1000 nM; IC50 ([4]; KRAS G12V-GppNHp/RAF1 RBD HTRF): 100 to 1000 nM; IC50 ([5]; KRAS G12D-GppNHp/RAF1 RBD HTRF): 100 to 1000 nM |
| < 100 |  | 100 to 1000 | 100 to 1000 | 100 to 1000 | < 100 | C[C@@H](O)CN(C)c1nc(OC[C@@]23CCCN2C[C@H](F)C3)nc2c(F)c(-c3ccc(F)c4sc(N)c(C#N)c34)c(C(F)(F)F)cc12 [Compound 71] |  |
| < 100 |  | 100 to 1000 | 100 to 1000 | 100 to 1000 | 100 to 1000 | CC(=O)N1CCC(N(C)c2nc(OC[C@@]34CCCN3C[C@H](F)C4)nc3c(F)c(-c4ccc(F)c5sc(N)c(C#N)c45)c(C(F)(F)F)cc23)[C@H]1C (stereo partly shown) [Compound 114] |  |
| < 100 |  | 100 to 1000 | 100 to 1000 | 1000 to 10000 | 100 to 1000 | C[C@H]1CN(c2nc(OC[C@@]34CCCN3C[C@H](F)C4)nc3c(F)c(-c4ccc(F)c5sc(N)c(C#N)c45)c(C(F)(F)F)cc23)CCO1 [Compound 142] |  |
